These results are taken from US20240116951A1, “HETEROCYCLIC COMPOUNDS AND USES THEREOF” (Kumquat Biosciences Inc., priority 2022, published 2024).

pIC50: −log10 of the molar value. Read-outs that look alike come from different tables or passages of the source. A value given as a limit tells only on which side of the number the result lay.

Common to all, as to assay type: binding
For experiment [1], the target named is T1, KRAS G12D (Homo sapiens, UniProt P01116, G12D).
T1 construct: made in house; host or cells: E. coli, e.g. BL21 (DE3)
The experiment in a line: HTRF assay of K-Ras G12D interaction with SOS1 (PPI-HTRF). An outline of the steps:
(§1)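 HTRF on GST-K-Ras/His-hSOS1 was measured after ≥10 min in pH 7.4 HEPES buffer. IC50 values were derived from the ratiometric emission signal.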
On the technique in general: In TR-FRET formats the signal depends on donor and acceptor labels being close together.

Experiment [2] has as its target T2, KRAS G12S (Homo sapiens, UniProt P01116, G12S).
T2 construct: made in house; host or cells: E. coli, e.g. BL21 (DE3)
The experiment in a line: HTRF assay of K-Ras G12S interaction with SOS1 (PPI-HTRF). An outline of the steps: as §1

The target of experiment [3] is T3, KRAS WT (Homo sapiens, UniProt P01116).
T3 construct: made in house; host or cells: E. coli, e.g. BL21 (DE3)
The experiment in a line: HTRF assay of wildtype K-Ras interaction with SOS1 (PPI-HTRF). In short, it runs like this: as §1

[4] abbreviates: HTRF, 5 nM KRAS G12D, read-out: PPI-HTRF-5 nM KRAS G12D.
Where [5] appears, read: 5 nM KRAS G12S, read-out: PPI-HTRF-5 nM KRAS G12S.
Where [6] appears, read: HTRF, 5 nM KRAS WT, read-out: PPI-HTRF-5 nM KRAS WT.

T1 sequence (P01116 1-188 isoform P01116-2 G12D): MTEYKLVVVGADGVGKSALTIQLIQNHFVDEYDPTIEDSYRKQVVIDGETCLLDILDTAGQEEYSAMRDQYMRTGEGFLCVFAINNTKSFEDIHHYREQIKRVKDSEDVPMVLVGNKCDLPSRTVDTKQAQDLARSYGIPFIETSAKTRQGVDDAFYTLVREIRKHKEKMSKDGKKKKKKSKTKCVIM
T3 sequence (P01116 1-188 isoform P01116-2): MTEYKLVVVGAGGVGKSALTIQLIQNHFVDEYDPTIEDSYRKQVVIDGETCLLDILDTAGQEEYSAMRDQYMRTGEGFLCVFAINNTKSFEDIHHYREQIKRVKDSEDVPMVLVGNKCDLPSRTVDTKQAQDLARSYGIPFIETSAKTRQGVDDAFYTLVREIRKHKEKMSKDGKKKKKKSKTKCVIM
T2 sequence (P01116 1-188 isoform P01116-2 G12S): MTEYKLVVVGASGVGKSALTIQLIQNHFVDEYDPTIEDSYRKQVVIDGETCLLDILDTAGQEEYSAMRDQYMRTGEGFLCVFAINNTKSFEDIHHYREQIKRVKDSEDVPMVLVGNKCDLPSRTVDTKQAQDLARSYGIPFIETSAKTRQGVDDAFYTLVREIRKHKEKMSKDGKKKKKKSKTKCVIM

For `COCc1ncn(C(=O)N2CCC23CCN(c2nc(OC[C@@]45CCCN4C[C@H](F)C5)nc4c(F)c(-c5ccc(F)c6sc(N)c(C#N)c56)c(Cl)cc24)C3)n1` (stereo partly drawn) [Compound 313, 2-amino-4-(6-chloro-8-fluoro-2-(((2R,7aS)-2-fluorotetrahydro-1H-pyrrolizin-7a(5H)-yl)methoxy)-4-(1-(3-(methoxymethyl)-1H-1,2,4-triazole-1-carbonyl)-1,6-diazaspiro[3.4]octan-6-yl)quinazolin-7-yl)-7-fluorobenzo[b]thiophene-3-carbonitrile], the pIC50 in experiment [1] (setting [4]), in experiment [2] (setting [5]) and in experiment [3] (setting [6]) was > 5.30 throughout.
Turning to `N#Cc1c(N)sc2c(F)ccc(-c3c(Cl)cc4c(N5CCC6(CCN6C(=O)Oc6ccc([N+](=O)[O-])cc6)C5)nc(OC[C@@]56CCCN5C[C@H](F)C6)nc4c3F)c12` (stereo partly drawn) [Compound 298, 4-nitrophenyl 6-(7-(2-amino-3-cyano-7-fluorobenzo[b]thiophen-4-yl)-6-chloro-8-fluoro-2-(((2R,7aS)-2-fluorotetrahydro-1H-pyrrolizin-7a(5H)-yl)methoxy)quinazolin-4-yl)-1,6-diazaspiro[3.4]octane-1-carboxylate], the pIC50 in experiment [1], in experiment [2] (PPI-HTRF-5 nM KRAS G12S) and in experiment [3] was > 5.30 each time.
In the case of `Nc1nc2c(-c3c(Cl)cc4c(N5CCC6(CC5)CCN6C(=O)n5cncn5)nc(OC[C@@]56CCCN5C[C@H](F)C6)nc4c3F)ccc(F)c2s1` [Compound 269, (7-(7-(2-amino-7-fluorobenzo[d]thiazol-4-yl)-6-chloro-8-fluoro-2-(((2R,7aS)-2-fluorotetrahydro-1H-pyrrolizin-7a(5H)-yl)methoxy)quinazolin-4-yl)-1,7-diazaspiro[3.5]nonan-1-yl)(1H-1,2,4-triazol-1-yl)methanone], the pIC50 in experiment [1] (setting [4]), in experiment [2] (setting [5]) and in experiment [3] (setting [6]) was > 5.30 throughout.
Regarding `Nc1nc2c(-c3c(Cl)cc4c(N5CCC6(CCN6)C5)nc(OC[C@@]56CCCN5C[C@H](F)C6)nc4c3F)ccc(F)c2s1` (stereo partly drawn) [Compound 242, 4-(6-chloro-8-fluoro-2-(((2R,7aS)-2-fluorotetrahydro-1H-pyrrolizin-7a(5H)-yl)methoxy)-4-(1,6-diazaspiro[3.4]octan-6-yl)quinazolin-7-yl)-7-fluorobenzo[d]thiazol-2-amine], the pIC50 in experiment [1] (setting [4]), in experiment [2] (setting [5]) and in experiment [3] (setting [6]) was > 5.30 throughout.
For the compound `N#Cc1c(N)sc2c(F)ccc(-c3c(Cl)cc4c(N5CCC6(CCN6C(=O)n6nccc6C#N)C5)nc(OC[C@@]56CCCN5C[C@H](F)C6)nc4c3F)c12` (stereo partly drawn) [Compound 290, 1-(6-(7-(2-amino-3-cyano-7-fluorobenzo[b]thiophen-4-yl)-6-chloro-8-fluoro-2-(((2R,7aS)-2-fluorotetrahydro-1H-pyrrolizin-7a(5H)-yl)methoxy)quinazolin-4-yl)-1,6-diazaspiro[3.4]octane-1-carbonyl)-1H-pyrazole-5-carbonitrile], the pIC50 in experiment [1] (setting [4]), in experiment [2] (setting [5]) and in experiment [3] (setting [6]) was > 5.30 throughout.
Turning to `Cc1nc(C(C)C)nn1C(=O)N1CCC12CCN(c1nc(OC[C@@]34CCCN3C[C@H](F)C4)nc3c(F)c(-c4ccc(F)c5sc(N)c(C#N)c45)c(Cl)cc13)C2` (stereo partly drawn) [Compound 266, 2-amino-4-(6-chloro-8-fluoro-2-(((2R,7aS)-2-fluorotetrahydro-1H-pyrrolizin-7a(5H)-yl)methoxy)-4-(1-(3-isopropyl-5-methyl-1H-1,2,4-triazole-1-carbonyl)-1,6-diazaspiro[3.4]octan-6-yl)quinazolin-7-yl)-7-fluorobenzo[b]thiophene-3-carbonitrile], the pIC50 in experiment [1] (setting [4]), in experiment [2] (setting [5]) and in experiment [3] (setting [6]) was > 5.30 each time.
Take `N#Cc1c(N)sc2c(F)ccc(-c3c(Cl)cc4c(N5CC[C@]6(CCN6)C5)nc(OC[C@@]56CCCN5C[C@H](F)C6)nc4c3F)c12` [Compound 285, 2-amino-4-(6-chloro-8-fluoro-2-(((2R,7aS)-2-fluorotetrahydro-1H-pyrrolizin-7a(5H)-yl)methoxy)-4-((R)-1,6-diazaspiro[3.4]octan-6-yl)quinazolin-7-yl)-7-fluorobenzo[b]thiophene-3-carbonitrile]: the pIC50 in experiment [1] (setting [4]), in experiment [2] (setting [5]) and in experiment [3] (setting [6]) was > 5.30 each time.
`N#Cc1c(N)sc2c(F)ccc(-c3c(Cl)cc4c(N5CCC6(CCCCN6C(=O)C6CC6(F)F)C5)nc(OC[C@@]56CCCN5C[C@H](F)C6)nc4c3F)c12` (stereo partly drawn) [Compound 240, 2-amino-4-(6-chloro-4-(6-(2,2-difluorocyclopropane-1-carbonyl)-2,6-diazaspiro[4.5]decan-2-yl)-8-fluoro-2-(((2R,7aS)-2-fluorotetrahydro-1H-pyrrolizin-7a(5H)-yl)methoxy)quinazolin-7-yl)-7-fluorobenzo[b]thiophene-3-carbonitrile]: the pIC50 in experiment [1] (setting [4]), in experiment [2] (setting [5]) and in experiment [3] (setting [6]) was > 5.30 in each case.
On to `N#Cc1c(N)sc2c(F)ccc(-c3c(Cl)cc4c(N5CCC6(CCN6C#N)C5)nc(OC[C@@]56CCCN5C[C@H](F)C6)nc4c3F)c12` (stereo partly drawn) [Compound 303, 6-(7-(2-amino-3-cyano-7-fluorobenzo[b]thiophen-4-yl)-6-chloro-8-fluoro-2-(((2R,7aS)-2-fluorotetrahydro-1H-pyrrolizin-7a(5H)-yl)methoxy)quinazolin-4-yl)-1,6-diazaspiro[3.4]octane-1-carbonitrile], for which the pIC50 in experiment [1] (setting [4]), in experiment [2] (setting [5]) and in experiment [3] (setting [6]) was > 5.30 in each case.
`N#Cc1c(N)sc2c(F)ccc(-c3c(Cl)cc4c(N5CCC6(CCN6C(=O)n6nccn6)C5)nc(OC[C@@]56CCCN5C[C@H](F)C6)nc4c3F)c12` (stereo partly drawn) [Compound 300, 4-(4-(1-(2H-1,2,3-triazole-2-carbonyl)-1,6-diazaspiro[3.4]octan-6-yl)-6-chloro-8-fluoro-2-(((2R,7aS)-2-fluorotetrahydro-1H-pyrrolizin-7a(5H)-yl)methoxy)quinazolin-7-yl)-2-amino-7-fluorobenzo[b]thiophene-3-carbonitrile]: the pIC50 in experiment [1] (setting [4]), in experiment [2] (setting [5]) and in experiment [3] (setting [6]) was > 5.30 throughout.
As for `N#Cc1ncn(C(=O)N2CC[C@@]23CCN(c2nc(OC[C@@]45CCCN4C[C@H](F)C5)nc4c(F)c(-c5ccc(F)c6sc(N)c(C#N)c56)c(Cl)cc24)C3)n1` [Compound 321, 1-((4R)-6-(7-(2-amino-3-cyano-7-fluorobenzo[b]thiophen-4-yl)-6-chloro-8-fluoro-2-(((2R,7aS)-2-fluorotetrahydro-1H-pyrrolizin-7a(5H)-yl)methoxy)quinazolin-4-yl)-1,6-diazaspiro[3.4]octane-1-carbonyl)-1H-1,2,4-triazole-3-carbonitrile], the pIC50 in experiment [1] (setting [4]), in experiment [2] (setting [5]) and in experiment [3] (setting [6]) was > 5.30 each time.
`N#Cc1c(N)sc2c(F)ccc(-c3c(Cl)cc4c(N5CCCC6(CCCN6)C5)nc(OC[C@@]56CCCN5C[C@H](F)C6)nc4c3F)c12` (stereo partly drawn) [Compound 218, 2-amino-4-(6-chloro-8-fluoro-2-(((2R,7aS)-2-fluorotetrahydro-1H-pyrrolizin-7a(5H)-yl)methoxy)-4-(1,7-diazaspiro[4.5]decan-7-yl)quinazolin-7-yl)-7-fluorobenzo[b]thiophene-3-carbonitrile]: the pIC50 in experiment [1] (setting [4]), in experiment [2] (setting [5]) and in experiment [3] (setting [6]) was > 5.30 in each case.
Take `COCC(=O)N1CCC12CCN(c1nc(O[C@@H](C)[C@@H]3CCCN3C)nc3c(F)c(-c4ccc(F)c5sc(N)c(C#N)c45)c(Cl)cc13)C2` (stereo partly drawn) [Compound 254, 2-amino-4-(6-chloro-8-fluoro-4-(1-(2-methoxyacetyl)-1,6-diazaspiro[3.4]octan-6-yl)-2-((S)-1-((S)-1-methylpyrrolidin-2-yl)ethoxy)quinazolin-7-yl)-7-fluorobenzo[b]thiophene-3-carbonitrile]: the pIC50 in experiment [1] (setting [4]), in experiment [2] (setting [5]) and in experiment [3] (setting [6]) was > 5.30 throughout.
Turning to `N#Cc1c(N)sc2c(F)ccc(-c3c(Cl)cc4c(N5CC6(CCN6C(=O)n6cnc(Cl)n6)CC5C(F)F)nc(OC[C@@]56CCCN5C[C@H](F)C6)nc4c3F)c12` (stereo partly drawn) [Compound 323, 2-amino-4-(6-chloro-4-(1-(3-chloro-1H-1,2,4-triazole-1-carbonyl)-7-(difluoromethyl)-1,6-diazaspiro[3.4]octan-6-yl)-8-fluoro-2-(((2R,7aS)-2-fluorotetrahydro-1H-pyrrolizin-7a(5H)-yl)methoxy)quinazolin-7-yl)-7-fluorobenzo[b]thiophene-3-carbonitrile], the pIC50 in experiment [1] (setting [4]) was < 5.30; in experiment [2] (setting [5]) it was > 5.30; in experiment [3] (setting [6]), < 5.30.
Consider `Cc1ncn(C(=O)N2CC[C@]23CCN(c2nc(OC[C@@]45CCCN4C[C@H](F)C5)nc4c(F)c(-c5ccc(F)c6sc(N)c(C#N)c56)c(Cl)cc24)C3)n1` [Compound 222, 2-amino-4-(6-chloro-8-fluoro-2-(((2R,7aS)-2-fluorotetrahydro-1H-pyrrolizin-7a(5H)-yl)methoxy)-4-((S)-1-(3-methyl-1H-1,2,4-triazole-1-carbonyl)-1,6-diazaspiro[3.4]octan-6-yl)quinazolin-7-yl)-7-fluorobenzo[b]thiophene-3-carbonitrile], for which the pIC50 in experiment [1] (setting [4]), in experiment [2] (setting [5]) and in experiment [3] (setting [6]) was > 5.30 each time.
